Measured values published in PubChem BioAssay (NCI).
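A five-concentration, 48-hour dose response in 96-well plates underlies each endpoint, interpolated linearly between surrounding concentrations. Abbreviation: GI50, concentration required for 50% inhibition of growth. At the TGI there is no net growth.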

Experiments:
Assay in all cases: NCI tumour cell line growth inhibition, 48 h
UO-31 renal = tested on: UO-31 renal
HOP-92 NSCLC = tested on: HOP-92 NSCLC
SK-MEL-5 melanoma = tested on: SK-MEL-5 melanoma
MOLT-4 leukemia = tested on: MOLT-4 leukemia
TK-10 renal = tested on: TK-10 renal
MDA-MB-435 = tested on: MDA-MB-435
SR leukemia = tested on: SR leukemia
NCI-H226 lung = tested on: NCI-H226 lung
RXF 393 renal = tested on: RXF 393 renal
EKVX NSCLC = tested on: EKVX NSCLC

Structure (SMILES)	GI50 (UO-31 renal)	TGI (UO-31 renal)	GI50 (HOP-92 NSCLC)	TGI (HOP-92 NSCLC)	GI50 (SK-MEL-5 melanoma)	TGI (SK-MEL-5 melanoma)	GI50 (MOLT-4 leukemia)	TGI (MOLT-4 leukemia)	GI50 (TK-10 renal)	TGI (TK-10 renal)	GI50 (MDA-MB-435)	TGI (MDA-MB-435)	GI50 (SR leukemia)	TGI (SR leukemia)	GI50 (NCI-H226 lung)	TGI (NCI-H226 lung)	GI50 (RXF 393 renal)	TGI (RXF 393 renal)	TGI (EKVX NSCLC)	GI50 (EKVX NSCLC)
CN(C)CCCC(=O)Nc1ccc(Cn2nnc3c2C(=O)c2nnn(Cc4ccc(NC(=O)CCCN(C)C)cc4)c2C3=O)cc1	> 100 µM	> 100 µM	2.51 µM	5.82 µM	1.48 µM	2.84 µM	1.96 µM	5.2 µM	> 100 µM	> 100 µM	1.82 µM	3.26 µM	3.36 µM	61.4 µM	16.5 µM	42.2 µM	5 µM	21.6 µM	–	–
COC1(OC)c2ccccc2C2(O)c3ccccc3C(=O)C12 (stereo not given)	–	86.8 µM	–	> 100 µM	–	31.9 µM	–	80.9 µM	–	> 100 µM	–	–	–	> 100 µM	–	> 100 µM	–	> 100 µM	> 100 µM	–
C=C(C(=O)OC)[C@@H]1C[C@@H](O)[C@]2(C)CC/C=C(\C)CCC[C@H](C)[C@H](O)C1O2	52.8 µM	> 100 µM	3.71 µM	45.4 µM	26.3 µM	79.5 µM	18.7 µM	46.5 µM	19.6 µM	48.8 µM	37.8 µM	> 100 µM	–	–	86.7 µM	> 100 µM	53.3 µM	> 100 µM	> 100 µM	55.9 µM
CN1c2ccccc2C(C)(C)C12CC(c1ccc(Cl)c(S(=O)(=O)N3CCCC3)c1)=NO2 (stereo not given)	> 100 µM	> 100 µM	–	–	0.456 µM	> 100 µM	–	–	> 100 µM	> 100 µM	> 100 µM	> 100 µM	–	–	> 100 µM	> 100 µM	> 100 µM	> 100 µM	> 100 µM	> 100 µM
CC(=O)OC1=C2C(CC3C4CC=C5CC(OC(C)=O)CCC5(C)C4CCC23C)C2C(=O)N(Cc3ccccc3)C(=O)C2C1 (stereo not given)	2.56 µM	8.39 µM	–	–	2.1 µM	4.79 µM	2.93 µM	8.37 µM	47.4 µM	> 100 µM	14.5 µM	> 100 µM	3.62 µM	16.6 µM	8.16 µM	> 100 µM	4.34 µM	45.3 µM	–	–
CN(Cc1ccccc1)C1(N(C)Cc2ccccc2)CC1	–	> 100 µM	–	> 100 µM	–	> 100 µM	–	> 100 µM	–	> 100 µM	–	–	–	–	–	> 100 µM	–	> 100 µM	> 100 µM	–
O=[N+]([O-])c1ccc2c(c1)S(=O)c1ccccc1-2 (stereo not given)	–	–	–	> 100 µM	–	> 100 µM	–	> 100 µM	–	> 100 µM	–	> 100 µM	–	> 100 µM	–	> 100 µM	–	–	> 100 µM	–
COc1cc2c3c(n(C)c(=O)c2cc1OC)-c1cc2c(cc1/C3=C\[C@@H](N)CCCCN)OCO2	8 µM	> 100 µM	1.7 µM	29.4 µM	–	–	0.389 µM	3.45 µM	7.12 µM	> 75 µM	2.81 µM	> 100 µM	–	–	1.48 µM	18.4 µM	12.7 µM	> 50.9 µM	75.9 µM	4.56 µM
COC(=O)c1cc2c(cc1Cl)SC(N(N(C)C)S(=O)(=O)c1ccc(Cl)cc1)=NS2(=O)=O	25.3 µM	> 100 µM	14.5 µM	30.9 µM	14.6 µM	27.7 µM	11.8 µM	27.5 µM	19.2 µM	53.3 µM	16.3 µM	33.3 µM	19.8 µM	40.9 µM	19.8 µM	62 µM	–	–	33 µM	17 µM
Cc1nn(C)c(=O)c2nn(-c3ccccc3)c(C)c12	–	> 100 µM	–	–	–	> 100 µM	–	> 100 µM	–	> 100 µM	–	–	–	> 100 µM	–	> 100 µM	–	> 100 µM	> 100 µM	–
COc1ccc(Nc2c[nH]c(=O)[nH]c2=O)cc1	–	> 100 µM	–	> 100 µM	–	> 100 µM	–	> 100 µM	–	> 100 µM	–	> 100 µM	–	–	–	> 100 µM	–	> 100 µM	> 100 µM	–
O=C1CC(c2c[nH]c3ccccc23)C(=O)N1c1ccccc1 (stereo not given)	–	> 100 µM	–	–	–	> 100 µM	–	> 100 µM	–	> 100 µM	–	–	–	–	–	> 100 µM	–	> 100 µM	> 100 µM	–
CC(C)(C)C(=O)OCC(COC(=O)C(C)(C)C)[N+](=O)[O-]	–	> 100 µM	–	–	–	–	–	> 100 µM	–	> 100 µM	–	–	–	> 100 µM	–	> 100 µM	–	> 100 µM	> 100 µM	–
c1ccc2c(c1)ccc1c3ccccc3ccc21	> 50 µM	> 50 µM	> 50 µM	> 50 µM	> 50 µM	> 50 µM	> 50 µM	> 50 µM	> 50 µM	> 50 µM	> 50 µM	> 50 µM	–	–	> 50 µM	> 50 µM	> 50 µM	> 50 µM	–	–
C1C[OH+]CC[OH+]CC[OH+]CC[OH+]CC[OH+]CC[OH+]1.[Cl-].[Ta+5]	5.02 µM	30.3 µM	> 100 µM	> 100 µM	> 100 µM	> 100 µM	> 100 µM	> 100 µM	> 100 µM	> 100 µM	–	–	–	–	13.3 µM	30.5 µM	> 100 µM	> 100 µM	–	–
COc1cc(/C=C2\CCc3ccccc3C2=O)cc(OC)c1OC	–	30.7 µM	–	24.5 µM	–	25.3 µM	–	40.7 µM	–	33.6 µM	–	–	–	> 100 µM	–	36.8 µM	–	29 µM	34.3 µM	–
CS(=O)(=O)CS(=O)CS(=O)CS(=O)CC(NC(=O)CCC(N)C(=O)O)C(=O)O (stereo not given)	–	> 100 µM	–	> 100 µM	–	> 100 µM	–	> 100 µM	–	> 100 µM	–	> 100 µM	–	> 100 µM	–	–	–	–	> 100 µM	–
CC1=N/C(=C\c2cccc3ccccc23)C(=O)O1	–	> 100 µM	–	> 100 µM	–	> 100 µM	–	> 100 µM	–	> 100 µM	–	–	–	–	–	–	–	> 100 µM	> 100 µM	–
